Measured values published in ChEMBL document CHEMBL3232814, “Synthesis and anticancer structure activity relationship investigation of cationic anthraquinone analogs” (2014).

What was measured:
Assay type in all cases: functional
SK-MEL-28 = assay: Growth inhibition of human SK-MEL-28 cells
NCI-H522 = assay: Growth inhibition of human NCI-H522 cells
SK-MEL-2 = assay: Growth inhibition of human SK-MEL-2 cells
SW-620 = assay: Growth inhibition of human SW620 cells
Malme-3M = assay: Growth inhibition of human MALME-3M cells
HCT-116 = assay: Growth inhibition of human HCT116 cells
NCI-H226 = assay: Growth inhibition of human NCI-H226 cells
SNB-19 = assay: Growth inhibition of human SNB19 cells
[1] = Growth inhibition of human SF295 cells; conditions: SF-295
COLO 205 = assay: Growth inhibition of human COLO205 cells
[2] = Growth inhibition of human NCI60 cells assessed as cell growth; design: concentration or dose not given beside the values
[3] = Growth inhibition of human UACC62 cells
NCI-H23 = assay: Growth inhibition of human NCI-H23 cells
[4] = Growth inhibition of human HCT15 cells
NCI-H460 = assay: Growth inhibition of human NCI-H460 cells
[5] = Growth inhibition of human SF539 cells
SK-MEL-5 = assay: Growth inhibition of human SK-MEL-5 cells
[6] = Growth inhibition of human HCC2998 cells
[7] = Growth inhibition of human HOP92 cells
KM12 = assay: Growth inhibition of human KM12 cells
[8] = Growth inhibition of human LOXIMVI cells; conditions: LOX IMVI
U-251 = assay: Growth inhibition of human U251 cells
[9] = Growth inhibition of human UACC257 cells
MDA-MB-435 = assay: Growth inhibition of human MDA-MB-435 cells
A549 = assay: Growth inhibition of human A549 cells
HT-29 = assay: Growth inhibition of human HT-29 cells
HOP-62 = assay: Growth inhibition of human HOP62 cells
NCI-H322M = assay: Growth inhibition of human NCI-H322M cells
[10] = Growth inhibition of human EKVX cells
SNB-75 = assay: Growth inhibition of human SNB75 cells
SF-268 = assay: Growth inhibition of human SF268 cells
M14 = assay: Growth inhibition of human M14 cells
[11] = read-out: LC50 (the source's name)

C[n+]1nn(-c2ccc(C(F)(F)F)cc2)c2c1C(=O)c1ccccc1C2=O.O=S(=O)([O-])C(F)(F)F
GI50 (SK-MEL-28): 12.8 µM
CC50 (SK-MEL-28; [11]): 56.5 µM
GI50 (NCI-H522): 14.3 µM
CC50 (NCI-H522; [11]): 68.2 µM
GI50 (SK-MEL-2): 12.5 µM
CC50 (SK-MEL-2; [11]): > 100 µM
GI50 (SW-620): 14 µM
CC50 (SW-620; [11]): 64.3 µM
GI50 (Malme-3M): 1.84 µM
CC50 (Malme-3M; [11]): 9.35 µM
GI50 (HCT-116): 3.42 µM
CC50 (HCT-116; [11]): 41.9 µM
GI50 (NCI-H226): 10.1 µM
CC50 (NCI-H226; [11]): 89.4 µM
GI50 (SNB-19): 1.45 µM
LC50 (SNB-19): 6.54 µM
GI50 [1]: 0.54 µM
LC50 (concentration killing 50% of cells) [1]: 6.74 µM
GI50 (COLO 205): 1.32 µM
CC50 (COLO 205; [11]): 5.73 µM
Activity [2]: 58.69%
GI50 ([3]; UACC-62): 1.67 µM
CC50 ([3]; UACC-62, read-out: LC50 (the source's name)): 30.6 µM
GI50 (NCI-H23): 0.36 µM
CC50 (NCI-H23; [11]): 5.33 µM
GI50 ([4]; HCT-15): 3.48 µM
CC50 ([4]; HCT-15, read-out: LC50 (the source's name)): 84 µM
GI50 (NCI-H460): 1.4 µM
CC50 (NCI-H460; [11]): 7.77 µM
GI50 ([5]; SF-539): 4.68 µM
CC50 ([5]; SF-539, read-out: LC50 (the source's name)): 46.7 µM
GI50 (SK-MEL-5): 0.16 µM
LC50 (lethal concentration 50) (SK-MEL-5): 0.57 µM
GI50 ([6]; HCC 2998): 1.52 µM
CC50 ([6]; HCC 2998, read-out: LC50 (the source's name)): 12.9 µM
GI50 ([7]; HOP-92): > 100 µM
CC50 ([7]; HOP-92, read-out: LC50 (the source's name)): > 100 µM
GI50 (KM12): 8.17 µM
CC50 (KM12; [11]): 55.9 µM
GI50 [8]: 2.68 µM
CC50 [8, 11]: 36.8 µM
GI50 (U-251): 14 µM
LC50 (U-251): 56.8 µM
GI50 ([9]; UACC-257): 3.24 µM
CC50 ([9]; UACC-257, read-out: LC50 (the source's name)): 43.1 µM
GI50 (MDA-MB-435): 1.09 µM
CC50 (MDA-MB-435; [11]): 7.28 µM
GI50 (A549): 0.86 µM
CC50 (A549; [11]): > 100 µM
GI50 (HT-29): 4.1 µM
LC50 (HT-29): > 100 µM
GI50 (HOP-62): 2.12 µM
CC50 (HOP-62; [11]): 26 µM
GI50 (NCI-H322M): 0.83 µM
CC50 (NCI-H322M; [11]): 4.86 µM
GI50 [10]: 23.4 µM
CC50 [10, 11]: > 100 µM
GI50 (SNB-75): 1.07 µM
CC50 (SNB-75; [11]): 11.2 µM
GI50 (SF-268): 18.7 µM
CC50 (SF-268; [11]): > 100 µM
GI50 (M14): 0.54 µM
CC50 (M14; [11]): 4.38 µM

C[n+]1nn(-c2ccc(Cl)cc2)c2c1C(=O)c1ccccc1C2=O.O=S(=O)([O-])C(F)(F)F
Activity [2]: 101.7%
